For assay [1], the system named is Micrococcus luteus. In words: Antibacterial activity against Micrococcus luteus MTCC 2470 after 24 hrs by agar well diffusion method. It is filed as functional. As to conditions: MTCC 2470, 24 h. Background: A growth-free zone around the sample is the usual read-out of agar diffusion tests.
The test system of assay [2] is Staphylococcus aureus. In words: Antibacterial activity against Staphylococcus aureus MTCC 96 after 24 hrs by agar well diffusion method. It is filed as functional. As to conditions: MTCC 96, 24 h.
Assay [3] concerns Staphylococcus aureus. In words: Antibacterial activity against Staphylococcus aureus MLS-16 MTCC 2940 after 24 hrs by agar well diffusion method. As to conditions: MLS-16 MTCC 2940, 24 h. The class given is functional.
The subject of assay [4] is Bacillus subtilis. In words: Antibacterial activity against Bacillus subtilis MTCC 121 after 24 hrs by agar well diffusion method. It is filed as functional. As to conditions: MTCC 121, 24 h.
Assay [5] relates to Escherichia coli. In words: Antibacterial activity against Escherichia coli MTCC 739 after 24 hrs by agar well diffusion method. The class given is functional. As to conditions: MTCC 739, 24 h.
The subject of assay [6] is Raoultella planticola. In words: Antibacterial activity against Klebsiella planticola MTCC 530 after 24 hrs by agar well diffusion method. The class given is functional. As to conditions: MTCC 530, 24 h.
For assay [7], the system named is Candida albicans. In words: Antifungal activity against Candida albicans MTCC 3017. The class given is functional.
In assay [8] the test system is Micrococcus luteus. In words: Bactericidal activity against Micrococcus luteus MTCC 2470 measured after 24 hrs. The class given is functional. As to conditions: MTCC 2470, 24 h.
Assay [9] deals with Staphylococcus aureus. In words: Bactericidal activity against Staphylococcus aureus MTCC 96 measured after 24 hrs. The class given is functional. As to conditions: MTCC 96, 24 h.
In assay [10] the test system is Staphylococcus aureus. In words: Bactericidal activity against Staphylococcus aureus MLS-16 MTCC 2940 measured after 24 hrs. The class given is functional. As to conditions: MLS-16 MTCC 2940, 24 h.
Assay [11] has as its system Bacillus subtilis. In words: Bactericidal activity against Bacillus subtilis MTCC 121 measured after 24 hrs. The class given is functional. As to conditions: MTCC 121, 24 h.
Assay [12] deals with Escherichia coli. In words: Bactericidal activity against Escherichia coli MTCC 739 measured after 24 hrs. The class given is functional. As to conditions: MTCC 739, 24 h.
For assay [13], the system named is Raoultella planticola. In words: Bactericidal activity against Klebsiella planticola MTCC 530 measured after 24 hrs. As to conditions: MTCC 530, 24 h. The class given is functional.
Assay [14] relates to Candida albicans. In words: Fungicidal activity against Candida albicans MTCC 3017 measured after 24 hrs. As to conditions: MTCC 3017, 24 h. The class given is functional.
The subject of the next assay is Pseudomonas aeruginosa. In words: microbe, parasite or virus in culture. As to conditions: MTCC 2453, 24 h.

SMILES strings stand for the structures. Converted amounts (≈) assume the structure as drawn.

As usually defined, the MIC is the least concentration at which growth counts as inhibited. Read a high MIC as weaker potency. The MFC is the lowest tested concentration that kills the fungus rather than only halting it.

Description for Pseudomonas aeruginosa: Bactericidal activity against Pseudomonas aeruginosa MTCC 2453 measured after 24 hrs

Take `O=C1COc2ccc(Cl)cc2N1Cc1cn(-c2ccc(F)cc2)nn1`: the MIC in the assay on Micrococcus luteus [1] was 1.9 µg/mL (≈ 5.3 µM); against Staphylococcus aureus [2], 3.9 µg/mL (≈ 10.9 µM); in the assay on Staphylococcus aureus [3] it was 1.9 µg/mL (≈ 5.3 µM); in the assay with Bacillus subtilis [4] it was 1.9 µg/mL (≈ 5.3 µM); with Escherichia coli [5], 3.9 µg/mL (≈ 10.9 µM); with Raoultella planticola [6], 3.9 µg/mL (≈ 10.9 µM). In addition, the MIC against Candida albicans [7] worked out at 7.8 µg/mL (≈ 21.7 µM). Also, the MBC in the assay on Micrococcus luteus [8] is 3.9 µg/mL (≈ 10.9 µM); against Staphylococcus aureus [9], 7.8 µg/mL (≈ 21.7 µM); against Staphylococcus aureus [10], 3.9 µg/mL (≈ 10.9 µM); with Bacillus subtilis [11], 3.9 µg/mL (≈ 10.9 µM); against Escherichia coli [12] it was 7.8 µg/mL (≈ 21.7 µM); against Raoultella planticola [13], 7.8 µg/mL (≈ 21.7 µM). This compound displayed an MFC against Candida albicans [14] of 15.6 µg/mL (≈ 43.5 µM).

`O=C1COc2ccccc2N1Cc1cn(-c2ccc(Cl)cc2)nn1` showed an MIC against Candida albicans [7] of 7.8 µg/mL (≈ 22.9 µM). The same compound showed an MFC in the assay on Candida albicans [14] of 15.6 µg/mL (≈ 45.8 µM).

Consider `COc1ccc(-n2cc(CN3C(=O)COc4ccccc43)nn2)cc1`, for which the MIC against Escherichia coli [5] is 7.8 µg/mL (≈ 23.2 µM); against Candida albicans [7], 3.9 µg/mL (≈ 11.6 µM). The compound further came in with an MBC in the assay with Escherichia coli [12] of 15.6 µg/mL (≈ 46.4 µM). In the assay on Candida albicans [14], this compound displayed an MFC of 7.8 µg/mL (≈ 23.2 µM).

In the assay on Candida albicans [7], `O=C1COc2ccccc2N1Cc1cn(-c2ccc([N+](=O)[O-])cc2)nn1` gave an MIC of 15.6 µg/mL (≈ 44.4 µM). For the same compound, the MFC with Candida albicans [14] was 31.2 µg/mL (≈ 88.8 µM).

In the case of `O=C1COc2ccccc2N1Cc1cn(-c2ccc(F)cc2)nn1`, the MIC against Escherichia coli [5] is 7.8 µg/mL (≈ 24.1 µM); with Candida albicans [7], 3.9 µg/mL (≈ 12 µM). The compound further yielded an MBC against Escherichia coli [12] of 15.6 µg/mL (≈ 48.1 µM). Also, in the assay on Candida albicans [14], the MFC came to 7.8 µg/mL (≈ 24.1 µM).

Turning to `Cc1ccccc1-n1cc(CN2C(=O)COc3ccccc32)nn1`, the MIC in the assay with Staphylococcus aureus [3] worked out at 3.9 µg/mL (≈ 12.2 µM); with Escherichia coli [5], 3.9 µg/mL (≈ 12.2 µM); with Raoultella planticola [6], 3.9 µg/mL (≈ 12.2 µM); with Candida albicans [7], 7.8 µg/mL (≈ 24.3 µM). Also, the MBC with Staphylococcus aureus [10], in the assay with Escherichia coli [12] and in the assay with Raoultella planticola [13] was 7.8 µg/mL (≈ 24.3 µM) each time. In addition, the MFC with Candida albicans [14] stood at 15.6 µg/mL (≈ 48.7 µM).

`O=C1COc2ccccc2N1Cc1cn(Cc2ccccc2)nn1`: the MIC worked out at 1.9 µg/mL (≈ 5.93 µM) against Staphylococcus aureus [3] and 3.9 µg/mL (≈ 12.2 µM) against Escherichia coli [5]. The MBC worked out at 3.9 µg/mL (≈ 12.2 µM) with Staphylococcus aureus [10] and 7.8 µg/mL (≈ 24.3 µM) with Escherichia coli [12].

Turning to `Clc1ccc(COC(Cn2ccnc2)c2ccc(Cl)cc2Cl)c(Cl)c1` (centres undefined) [MICONAZOLE], it took 7.8 µg/mL (≈ 18.7 µM) to inhibit growth against Candida albicans [7] (MIC). Moreover, in the assay with Candida albicans [14], the MFC worked out at 7.8 µg/mL (≈ 18.7 µM).

Turning to `Cc1ccc(-n2cc(CN3C(=O)COc4ccc(Cl)cc43)nn2)cc1`, the MIC with Micrococcus luteus [1] amounted to 1.9 µg/mL (≈ 5.36 µM); with Staphylococcus aureus [2] it was 1.9 µg/mL (≈ 5.36 µM); in the assay on Staphylococcus aureus [3] it was 1.9 µg/mL (≈ 5.36 µM); in the assay with Bacillus subtilis [4], 1.9 µg/mL (≈ 5.36 µM); against Raoultella planticola [6], 3.9 µg/mL (≈ 11 µM); with Candida albicans [7], 7.8 µg/mL (≈ 22 µM). The MBC against Micrococcus luteus [8] was found to be 3.9 µg/mL (≈ 11 µM); with Staphylococcus aureus [9], 3.9 µg/mL (≈ 11 µM); against Staphylococcus aureus [10], 3.9 µg/mL (≈ 11 µM); with Bacillus subtilis [11] it was 3.9 µg/mL (≈ 11 µM); in the assay on Raoultella planticola [13], 7.8 µg/mL (≈ 22 µM). This compound returned an MFC in the assay with Candida albicans [14] of 15.6 µg/mL (≈ 44 µM).

With `Cc1ccccc1-n1cc(CN2C(=O)COc3ccc(Cl)cc32)nn1`, the MIC in the assay on Micrococcus luteus [1] came to 1.9 µg/mL (≈ 5.36 µM); in the assay with Staphylococcus aureus [2], 1.9 µg/mL (≈ 5.36 µM); against Staphylococcus aureus [3], 1.9 µg/mL (≈ 5.36 µM); in the assay on Bacillus subtilis [4], 1.9 µg/mL (≈ 5.36 µM); in the assay with Escherichia coli [5], 3.9 µg/mL (≈ 11 µM); against Raoultella planticola [6], 3.9 µg/mL (≈ 11 µM). Also, 7.8 µg/mL (≈ 22 µM) was the least that counted as inhibitory in the assay on Candida albicans [7] (MIC). The MBC was 3.9 µg/mL (≈ 11 µM) in the assay on Micrococcus luteus [8]; 3.9 µg/mL (≈ 11 µM) in the assay with Staphylococcus aureus [9]; 3.9 µg/mL (≈ 11 µM) in the assay with Staphylococcus aureus [10]; 3.9 µg/mL (≈ 11 µM) against Bacillus subtilis [11]; 7.8 µg/mL (≈ 22 µM) against Escherichia coli [12]; 7.8 µg/mL (≈ 22 µM) against Raoultella planticola [13]. In the assay on Candida albicans [14], this compound registered an MFC of 15.6 µg/mL (≈ 44 µM).

Turning to `COc1ccc(-n2cc(CN3C(=O)COc4ccc(Cl)cc43)nn2)cc1`, the values for the MIC in the assay on Staphylococcus aureus [3] and against Candida albicans [7] were 1.9 µg/mL (≈ 5.12 µM) and 7.8 µg/mL (≈ 21 µM), respectively. Also, in the assay with Staphylococcus aureus [10], the MBC worked out at 3.9 µg/mL (≈ 10.5 µM). In addition, the MFC against Candida albicans [14] was determined as 15.6 µg/mL (≈ 42.1 µM).

Take `O=C1COc2ccccc2N1Cc1cn(-c2ccccc2)nn1`: the MIC against Staphylococcus aureus [2] and in the assay on Raoultella planticola [6] was 3.9 µg/mL (≈ 12.7 µM) in each case. Further, the MBC in the assay on Staphylococcus aureus [9] and against Raoultella planticola [13] was 7.8 µg/mL (≈ 25.5 µM) each time.

`O=C1COc2ccc(Cl)cc2N1Cc1cn(Cc2ccccc2)nn1`: it took 7.8 µg/mL (≈ 22 µM) to inhibit growth against Candida albicans [7] (MIC). In the assay with Candida albicans [14], this compound gave an MFC of 15.6 µg/mL (≈ 44 µM).

`O=C(O)c1cn(C2CC2)c2cc(N3CCNCC3)c(F)cc2c1=O` [CIPROFLOXACIN]: the MIC with Micrococcus luteus [1], against Staphylococcus aureus [2], in the assay on Staphylococcus aureus [3], in the assay on Bacillus subtilis [4], in the assay with Escherichia coli [5] and against Raoultella planticola [6] was 0.9 µg/mL (≈ 2.72 µM) in each case. The MBC with Micrococcus luteus [8], in the assay with Staphylococcus aureus [9], in the assay with Staphylococcus aureus [10], in the assay with Bacillus subtilis [11], in the assay on Escherichia coli [12] and against Raoultella planticola [13] was 0.9 µg/mL (≈ 2.72 µM) each time. This compound had an MBC against Pseudomonas aeruginosa of 0.9 µg/mL (≈ 2.72 µM).

For `O=C1COc2ccc(Cl)cc2N1Cc1cn(-c2ccc([N+](=O)[O-])cc2)nn1`, in the assay with Candida albicans [7], the MIC was 7.8 µg/mL (≈ 20.2 µM). In the assay with Candida albicans [14], the MFC was determined as 15.6 µg/mL (≈ 40.4 µM).

`Cc1ccc(-n2cc(CN3C(=O)COc4ccccc43)nn2)cc1`: the MIC in the assay on Staphylococcus aureus [3] amounted to 3.9 µg/mL (≈ 12.2 µM); in the assay with Escherichia coli [5] it was 3.9 µg/mL (≈ 12.2 µM); against Raoultella planticola [6] it was 3.9 µg/mL (≈ 12.2 µM); with Candida albicans [7] it was 7.8 µg/mL (≈ 24.3 µM). In addition, the MBC in the assay with Staphylococcus aureus [10], against Escherichia coli [12] and with Raoultella planticola [13] was 7.8 µg/mL (≈ 24.3 µM) throughout. In the assay on Candida albicans [14], this compound gave an MFC of 15.6 µg/mL (≈ 48.7 µM).
